Assay results published in PMC10318527, “Utilization of dietary mixed-linkage β-glucans by the Firmicute Blautia producta” (The Journal of Biological Chemistry, 2023).
Like-named read-outs stand apart in the source and are kept apart here.

What was measured:
BpGH16MLG = experiment: Initial screening of BpGH16MLG against substrates (TLC); assay type: biochemical, Blautia producta ATCC 27340; conditions: pH 5.7, 37 °C, 2 h
Protocol: After the appropriate incubation time, the reaction was terminated by boiling (5 min), and generated oligosaccharides were analyzed by thin layer chromatography (TLC). Typically, 1 μl of the reaction mixture was used for TLC analysis. TLC analysis was performed on Silica Gel 60 F254 (Merck), and produced sugars were visualized by spraying TLC with 5% H2SO4 in ethanol, followed by heating.

B. producta ATCC 27340 [1] = test system: B. producta ATCC 27340; set-up: method as in PMID 33043794; conditions: cited from earlier work
BpGH16MLG (BPGH16) = experiment: Michaelis-Menten kinetics of BpGH16MLG on β-glucans (DNS assay); assay type: biochemical, Blautia producta ATCC 27340; conditions: native BPGH16; DNS assay; pH 5.7, 37 °C
Protocol: Then, reactions were terminated by boiling for 5 min. Enzymatic assays were determined with 3,5- dinitrosalicylic acid (DNS) assay ([85]). In brief, 0.05 g Na2SO3 and 1 g DNS were mixed in a 50 ml water-containing reagent bottle and stirred about 6 h using a magnetic stirrer. After that, 200 μl phenol was added and made up to 100 ml. A working solution of DNS was prepared by adding 50 μl glucose (20% (w/v) stock) in prepared 100 ml of reagent mixtures and immediately used for experiments without adding NaOH. 80 μl DNS reagent was added to the reaction mixtures and incubated at 100 °C for 10 min, followed by ice-cooling for 10 min. Consequently, recorded the developed color spectrophotometrically at 575 nm ([85]). A standard curve generated by different concentrations of maltose was used for determining released reducing sugars in each case.

BpGH3-AR8MLG = BpGH3-AR8MLG (Blautia producta, UniProt A0ABX6J8C8); assay type: biochemical, Blautia producta ATCC 27340
Sequence of BpGH3-AR8MLG (A0ABX6J8C8 entry or part of it): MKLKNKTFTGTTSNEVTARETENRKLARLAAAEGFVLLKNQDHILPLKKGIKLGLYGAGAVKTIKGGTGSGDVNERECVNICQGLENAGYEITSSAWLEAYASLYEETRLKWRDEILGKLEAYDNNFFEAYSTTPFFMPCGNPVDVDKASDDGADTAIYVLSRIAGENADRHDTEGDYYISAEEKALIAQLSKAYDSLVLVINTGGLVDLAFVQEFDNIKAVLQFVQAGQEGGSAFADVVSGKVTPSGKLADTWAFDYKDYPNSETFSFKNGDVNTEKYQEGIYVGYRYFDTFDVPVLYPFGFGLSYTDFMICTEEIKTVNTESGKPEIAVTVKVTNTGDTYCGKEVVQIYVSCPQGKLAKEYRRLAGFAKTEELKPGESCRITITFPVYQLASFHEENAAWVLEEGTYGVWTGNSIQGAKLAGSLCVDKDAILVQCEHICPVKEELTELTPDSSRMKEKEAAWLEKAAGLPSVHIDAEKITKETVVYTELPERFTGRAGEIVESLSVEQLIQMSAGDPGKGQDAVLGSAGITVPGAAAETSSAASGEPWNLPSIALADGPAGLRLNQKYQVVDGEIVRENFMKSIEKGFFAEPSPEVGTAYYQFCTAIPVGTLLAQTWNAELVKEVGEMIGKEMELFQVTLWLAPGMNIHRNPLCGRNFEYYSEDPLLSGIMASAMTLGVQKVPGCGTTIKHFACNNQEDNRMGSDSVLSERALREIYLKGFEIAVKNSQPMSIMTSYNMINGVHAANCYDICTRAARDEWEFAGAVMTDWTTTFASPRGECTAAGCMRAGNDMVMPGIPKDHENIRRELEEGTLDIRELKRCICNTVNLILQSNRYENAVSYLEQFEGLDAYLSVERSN
Protocol: (§2) 150 μl of a freshly prepared 8:2 mixture of reagent A (50 mM sodium sulfite, 0.3 M 4-hydroxybenzhydrazide and 0.6 M HCl) and reagent B (50 mM trisodium citrate, 10 mM CaCl2, 0.5 M NaOH) were added to 50 μl sample. The reaction cocktail was boiled for 10 min at 100 °C. After the reaction was cooled down, the absorbance was recorded at 410 nm using the SpectraMax i3x multi-mode microplate reader. A calibration curve with different concentrations of glucose (0, 2, 4, 8, 16, 40, 80, 100, 200, 300, and 500 μM) was employed for each experiment to calculate the released amount of glucose (reducing end equivalents). The same samples were also used for control measurement, and the control value was subtracted from test reading prior to calculate kinetics parameters. In all cases, the Km, Vmax, and kcat were analyzed on GraphPad Prism. Three independent replicates were used for each test. TLC analyses were used for understanding the enzymatic degradation profiles of various oligosaccharides.

RaCDP = test system: RaCDP; set-up: method as in PMID 23802549; conditions: phosphorolytic reaction; cited from earlier work
BpGH94MLG [2] = target: T1, BpGH94MLG (Blautia producta, UniProt A0A7G5MNS2); experiment: Phosphorolysis activity of BpGH94MLG on substrates (TLC); assay type: biochemical, Blautia producta ATCC 27340; conditions: inorganic phosphate, 37 °C
T1 sequence (A0A7G5MNS2 1-804): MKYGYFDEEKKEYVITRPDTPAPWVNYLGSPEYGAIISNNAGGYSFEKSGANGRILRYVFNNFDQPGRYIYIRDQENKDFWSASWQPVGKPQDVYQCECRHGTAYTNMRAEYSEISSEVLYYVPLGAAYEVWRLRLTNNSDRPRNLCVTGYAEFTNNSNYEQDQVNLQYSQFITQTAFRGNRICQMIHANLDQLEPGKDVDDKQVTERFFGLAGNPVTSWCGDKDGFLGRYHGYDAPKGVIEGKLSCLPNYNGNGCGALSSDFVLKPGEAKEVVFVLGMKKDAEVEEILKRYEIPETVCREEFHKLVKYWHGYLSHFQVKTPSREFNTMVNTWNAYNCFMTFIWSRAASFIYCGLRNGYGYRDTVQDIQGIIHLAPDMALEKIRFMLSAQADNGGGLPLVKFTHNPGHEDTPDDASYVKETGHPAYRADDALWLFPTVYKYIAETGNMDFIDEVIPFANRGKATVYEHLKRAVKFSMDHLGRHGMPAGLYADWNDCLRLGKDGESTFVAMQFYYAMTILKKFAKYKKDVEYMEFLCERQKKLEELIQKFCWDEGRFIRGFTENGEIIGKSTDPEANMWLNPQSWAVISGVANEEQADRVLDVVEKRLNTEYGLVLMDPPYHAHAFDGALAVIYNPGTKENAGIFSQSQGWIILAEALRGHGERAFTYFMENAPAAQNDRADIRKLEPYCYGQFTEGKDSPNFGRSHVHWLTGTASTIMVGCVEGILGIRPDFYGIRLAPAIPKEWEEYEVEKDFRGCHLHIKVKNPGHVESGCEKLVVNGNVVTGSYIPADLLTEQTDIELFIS
Protocol: (§1) TLC was used for analyzing enzymatic actions. […] Kinetics parameters for BpGH94MLG were determined with G4G3G, G4G4G3G and cellotriose, following a p-hydroxybenzoic acid hydrazide (PAHBAH) reducing sugar assay ([69]).

Rt/CtCDP = test system: Rt/CtCDP; set-up: method as in PMID 12153715; conditions: phosphorolytic reaction; cited from earlier work
BpSBPMLG = BpSBPMLG (Blautia producta, UniProt A0ABX6JB09); experiment: Isothermal titration calorimetry of oligosaccharide binding to BpSBPMLG; set-up: species or system Blautia producta ATCC 27340; conditions: for -TΔS^0 / n (binding stoichiometry) / ΔG^0 / ΔH: ITC at 25 °C, 10 mM sodium phosphate pH 7.0
Sequence of BpSBPMLG (A0ABX6JB09 entry or part of it): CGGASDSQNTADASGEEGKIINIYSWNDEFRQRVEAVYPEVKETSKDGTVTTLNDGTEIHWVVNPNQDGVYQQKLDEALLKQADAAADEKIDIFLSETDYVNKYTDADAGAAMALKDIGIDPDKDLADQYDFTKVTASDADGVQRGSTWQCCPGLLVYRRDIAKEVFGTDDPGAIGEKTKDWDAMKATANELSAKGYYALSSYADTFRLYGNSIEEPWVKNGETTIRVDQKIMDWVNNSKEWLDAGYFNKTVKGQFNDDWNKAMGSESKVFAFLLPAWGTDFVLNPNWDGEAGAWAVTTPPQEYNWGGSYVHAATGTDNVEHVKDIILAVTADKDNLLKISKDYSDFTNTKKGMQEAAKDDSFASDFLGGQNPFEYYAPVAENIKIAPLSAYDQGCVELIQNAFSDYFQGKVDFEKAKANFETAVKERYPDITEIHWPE
Protocol: The binding of β-(1,4), β-(1,3), and MLG-oligosaccharides to BpSBPMLG was measured at 25 °C in 10 mM sodium phosphate buffer (pH 7) using a MicroCal PEAQ-ITC (Malvern). The protein was extensively dialyzed against 10 mM sodium phosphate and all glycan ligands were also dissolved in the same buffer to minimize the heat of dilution. 13 injections of an oligosaccharide were titrated on BpSBPMLG present in the sample cell. Various preliminary titration setups were tried by changing amounts of protein (5–100 μM) and ligand (50 μM–10 mM) to get the best experimental conditions. Thermodynamic binding parameters [calculates binding affinity (Kd), stoichiometry (n), enthalpy (ΔH), Gibbs free energy change (ΔG), and entropy (ΔS)] were determined using the MicroCal PEAQ-ITC analysis software.

TaCDP = test system: TaCDP; set-up: method as in PMID 28687766; conditions: phosphorolytic reaction; cited from earlier work
[3] = target: β-mannooligosaccharide binding protein of Roseburia; set-up: method as in PMID 30796211; conditions: cited from earlier work
BpGH94MLG [4] = target: T1, BpGH94MLG; experiment: Phosphorolysis kinetics of BpGH94MLG (PAHBAH assay); assay type: biochemical, Blautia producta ATCC 27340
Protocol: as §1

BpGH3-X62MLG = target: T2, BpGH3-X62MLG (Blautia producta, UniProt A0ABX6JIM0); experiment: Hydrolysis kinetics of BpGH3-X62MLG (PAHBAH assay, TLC); conditions: TLC
T2 sequence (A0ABX6JIM0 1-920): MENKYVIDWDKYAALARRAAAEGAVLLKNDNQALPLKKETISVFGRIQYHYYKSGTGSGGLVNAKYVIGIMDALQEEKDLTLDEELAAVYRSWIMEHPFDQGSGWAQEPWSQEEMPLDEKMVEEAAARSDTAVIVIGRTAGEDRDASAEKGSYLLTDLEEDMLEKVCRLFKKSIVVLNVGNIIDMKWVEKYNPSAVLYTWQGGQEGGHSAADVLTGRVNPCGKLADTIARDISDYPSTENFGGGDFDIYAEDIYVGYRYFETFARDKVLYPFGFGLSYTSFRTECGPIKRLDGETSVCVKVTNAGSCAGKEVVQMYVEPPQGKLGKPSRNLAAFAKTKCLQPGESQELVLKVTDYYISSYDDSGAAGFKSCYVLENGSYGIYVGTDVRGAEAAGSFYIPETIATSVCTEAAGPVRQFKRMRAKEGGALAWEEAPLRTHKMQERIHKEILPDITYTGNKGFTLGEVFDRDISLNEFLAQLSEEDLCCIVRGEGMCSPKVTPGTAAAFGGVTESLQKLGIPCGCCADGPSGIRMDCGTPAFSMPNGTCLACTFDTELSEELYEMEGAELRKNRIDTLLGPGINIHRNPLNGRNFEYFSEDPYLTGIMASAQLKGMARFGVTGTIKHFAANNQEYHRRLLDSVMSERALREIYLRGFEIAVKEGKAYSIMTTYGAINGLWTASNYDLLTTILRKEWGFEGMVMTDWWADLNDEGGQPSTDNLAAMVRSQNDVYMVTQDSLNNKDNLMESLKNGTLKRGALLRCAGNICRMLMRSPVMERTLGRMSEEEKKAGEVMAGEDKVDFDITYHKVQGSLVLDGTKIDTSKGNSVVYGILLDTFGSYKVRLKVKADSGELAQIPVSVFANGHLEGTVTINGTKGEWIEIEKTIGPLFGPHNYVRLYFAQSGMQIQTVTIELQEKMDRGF
Protocol: as §2

B. producta ATCC 27340 [5] = experiment: Growth of B. producta on β-glucans; assay type: cell-based, Blautia producta ATCC 27340; conditions: minimal medium containing 1% glucan
Protocol: Active culture of B. producta and culture conditions were maintained following the recently reported procedure ([31]). Once B. producta grew, cells were centrifuged, and the obtained supernatant was decanted. A pellet of cells was then washed three times with phosphate-buffered saline (PBS) and washed cells were suspended in 2 ml PBS. […] The growth assessment experiments were performed for 96 h, following our recently established protocol ([82]).

[6] = PAHBAH assay, 100 mM HEPES pH 6.5, 37 °C

Row | Molecule | activity of BpGH16MLG on substrate (initial screening) (BpGH16MLG) | Km (BpGH16MLG (BPGH16)) [mg/mL] | kcat (BpGH16MLG (BPGH16)) [s⁻¹] | phosphorolysis activity of BpGH94MLG (in words) (BpGH94MLG [2]) | Kd (BpSBPMLG) [nM] | -TΔS^0 (BpSBPMLG) [kcal/mol] | n (binding stoichiometry) (BpSBPMLG) | ΔG^0 (BpSBPMLG) [kcal/mol] | ΔH (BpSBPMLG) [kcal/mol] | further results
1 | Laminarin | did cleave | 0.24 ± 0.03 | 43 ± 0.6 |  |  |  |  |  |  | growth of B. producta on the glucan (B. producta ATCC 27340 [1]): does not support the growth
2 | OC[C@H]1O[C@@H](O[C@H]2[C@H](O)[C@@H](O)[C@H](O[C@H]3[C@H](O)[C@@H](O)C(O)O[C@@H]3CO)O[C@@H]2CO)[C@H](O)[C@@H](O)[C@@H]1O (stereo partly drawn) [Cellotriose] | did not show activity |  |  | cleaved | 1740 | 0.8 | 0.77 ± 0.02 | -7.9 | -7.1 ± 0.31 | Km (BpGH3-AR8MLG; [6]): 260 ± 30 µM; kcat (BpGH3-AR8MLG; [6]): 15 ± 0.2 s⁻¹; Km (RaCDP): 6060 µM; kcat (RaCDP): 76.2 s⁻¹; Km (Rt/CtCDP): 810 µM; kcat (Rt/CtCDP): 4 s⁻¹; Km (TaCDP): 94 µM; kcat (TaCDP): 0.28 s⁻¹
3 | OC[C@H]1O[C@@H](O[C@H]2[C@H](O)[C@H](O)[C@H](O[C@H]3[C@H](O)[C@H](O)[C@H](O[C@H]4[C@H](O)[C@H](O)C(O)O[C@@H]4CO)O[C@@H]3CO)O[C@@H]2CO)[C@@H](O)[C@@H](O)[C@@H]1O (stereo partly drawn) [mannotetraose] |  |  |  |  |  |  |  |  |  | Kd [3]: 3890 nM
4 | OC[C@H]1O[C@@H](O[C@H]2[C@H](O)[C@@H](O)[C@H](O[C@H]3[C@H](O)[C@@H](CO)OC(O)[C@@H]3O)O[C@@H]2CO)[C@H](O)[C@@H](O)[C@@H]1O (stereo partly drawn) [G4G3G, Glc-β-1-4-Glc-β-1-3-Glc] |  |  |  | cleaved | 1010 | 4.4 | 0.42 ± 0.01 | -8.18 | -12.6 ± 0.32 | cleavage by BpGH3-AR8MLG (in words) (BpGH3-AR8MLG; TLC): cleaved; Km lower compared to cellotriose (BpGH94MLG [4]): about 1.85 fold; cleavage by BpGH3-X62MLG (in words) (BpGH3-X62MLG): cleaved
5 | Lichenan | did cleave | 0.13 ± 0.02 | 36 ± 0.5 |  |  |  |  |  |  | growth of B. producta on the glucan (B. producta ATCC 27340 [5]): able to grow
